Experimental data reported in patent US20120316199A1, “COMPOSITIONS AND METHODS FOR TREATING, CONTROLLING, REDUCING, OR AMELIORATING INFLAMMATORY PAIN” (priority 2011, published 2012).
Several values for one entry are separate records, joined by “and”; a condition that tells them apart may be missing. Identical values can stand only once. Entries after “also recorded” stand apart in the source; their conditions may differ.

Assays:
[1] = test system: IL-1β-stimulated cytokine expression in primary human corneal epithelial cells; test: IL-1β-stimulated cytokine production in primary human corneal epithelial cells (30-cytokine Luminex kit); conditions: HCECs
Description: Primary HCECs were seeded in 24-well plates. […] Each treatment was performed in triplicate. Media were collected and used for determination of cytokine content using a 30-cytokine Luminex kit. Cell viability was determined by alamarBlue assay (LP06013).
Median fluorescence intensity (MFI) was used to obtain the concentration of each cytokines in pg/ml based on the standard curve of each cytokine assayed by Luminex. The linear range of the standard curve for each cytokine was used for determination of cytokine concentration. Duplicate values for each sample were averaged. Data were expressed as mean±SD. Statistical analysis was performed using one-way ANOVA-Dunnett's test, and P<0.05 was considered statistically significant.

[2] = test system: COX-2; test: COX-2 protein in IL-1β-induced human conjunctival fibroblasts (Western blot); format: cell-based; conditions: pretreated 2 h, then IL-1β 24 h; Western blot normalized to GAPDH (FIG. 7)
Description: Cells were washed with ice-cold PBS and lysed in cell lysis buffer (62.5 mM Tris-HCl, pH 6.8, 2% sodium dodecyl sulfate (SDS), 10% glycerol). Cells were sonicated, and centrifuged at 12,000 rpm and protein concentration was determined using the Micro BCA protein assay kit. Proteins in aliquots of cell lysate (˜20 μg protein) were separated by SDS-polyacrylamide electrophoresis (SDS-PAGE) on 10% gels and transferred to PVDF membranes. Membranes were blocked with 5% BSA and exposed to mouse anti-COX-2 antibody (Caymen). The blots were washed, and exposed to horseradish peroxidase-conjugated anti-mouse secondary antibody. After washing, blots were incubated in ECL (enhanced chemiluminescence) solutions and chemiluminescent bands were visualized using the Fluor Chem imaging system (AlphaInnotech, San Leandro, Calif.). Blots were then stripped and re-probed for glyceraldehyde 3-phosphate dehydrogenase (GAPDH) (Zymed) antibody as loading controls. The experiment was repeated 3 times. Analysis of Western blot band density for COX-2 and GAPDH in captured digital images was done using the Alpha-Innotech Chemi-Imager software (Alpha Innotech; San Leandro, Calif.). Levels of COX-2 protein were normalized to GAPDH.

[3] = test system: pain following cataract surgery; test: Clinical study after cataract surgery: Grade 0 pain; format: in vivo, human
Excerpt: (§1) There were 8 treatment groups in this study, consisting of three drug doses, vehicle and three dosing frequencies (see also Table 4-1): • Group A: 1% BOL-303242-X ophthalmic suspension, two times per day (BID) • Group B: 2% BOL-303242-X ophthalmic suspension, one time per day (QD) • Group C: 2% BOL-303242-X ophthalmic suspension, BID • Group D: 2% BOL-303242-X ophthalmic suspension, four times per day (QID) • Group E: 3% BOL-303242-X ophthalmic suspension, QD • Group F: 3% BOL-303242-X ophthalmic suspension, BID • Group G: 3% BOL-303242-X ophthalmic suspension, QID • Group H: Vehicle for BOL-303242-X (divided equally into QID, BID, and QD)
Subjects self-administered study drug, instilling 1 to 2 drops of study drug into the study eye: QID at approximately 4 hour intervals, BID at approximately 12 hour intervals, or QD once in the morning, for 14 days. The initial dose occurred in the clinic at Visit 3 and the final dose was on the day before Visit 6 (postoperative Day 15±1 day). Subjects were examined and evaluated according to the following schedule:
(§2) Visit 1 (screening), Visit 2 (cataract surgery), Visit 3 (postoperative Day 1), Visit 4 (postoperative Day 3±1 day), Visit 5 (postoperative Day 8±1 day), Visit 6 (postoperative Day 15±1 day), Visit 7 (postoperative Day 18±1 day). Subject assessments included adverse events (AEs), concomitant medications, ocular symptoms, pinholed Snellen visual acuity (VA), intraocular pressure (IOP), ocular signs (biomicroscopy), fundoscopy, and study drug drop sensation. In addition, subject diaries were collected and reviewed for accuracy and treatment compliance.
Secondary Efficacy: The secondary efficacy endpoints for this study were the proportions of subjects with Grade 0 pain at Visit 5 (postoperative Day 8) and at each visit, complete resolution of AC cells at each visit, complete resolution of AC cells and flare at each visit, complete resolution of AC flare at each visit, change from baseline to each follow-up visit in AC cells and AC flare combined and separately, ocular symptoms.

[4] = test system: intraocular pressure (IOP); test: Clinical study after cataract surgery: intraocular pressure (safety); format: in vivo, human
Excerpt: as §1, §2
Safety: The safety endpoints in this study were: incidence of AEs, change in IOP, ocular signs (biomicroscopy), Snellen VA, fundoscopy, study drug drop sensation assessment.

[5] = test system: protein concentration in the aqueous humor; test: Protein measurement in aqueous humor, rabbit paracentesis model; format: in vivo, Rabbit (New Zealand); conditions: for Protein level in aqueous humor, Mean: group mean
Description: Each rabbit was placed in a restraint device and tagged with the alphanumeric code. The formulations were instilled (50 μl) into the conjunctival sac of both eyes 180, 120, 90 and 30 min before the first paracentesis; then 15, 30, 90 min after the first paracentesis. To perform the first paracentesis the animals were anaesthetized by intravenous injection of 5 mg/kg Zoletil® (Virbac; 2.5 mg/kg tiletamine HCl and 2.5 mg/kg zolazepam HCl) and one drop of local anesthetic (Novesina®, Novartis) was administered to the eye. Anterior chamber paracentesis was performed with a 26 G needle attached to a tuberculin syringe; the needle was introduced into the anterior chamber through the cornea, taking care not to damage the tissues. Two hours after the first paracentesis, the animals were sacrificed with 0.4 ml Tanax® (Intervet International B.V.) and the second paracentesis was performed. About 100 μl of aqueous humor were removed at the second paracentesis. Aqueous humor was immediately split in four aliquots and stored at −80° C. until analysis. Then both eyes were enucleated and the iris-ciliary body was carefully excised, placed in polypropylene tubes, and stored at −80° C. until analysis.
For protein concentration determination in the aqueous humor we used the Protein Quantification Kit (Fluka; Cat. No. 77371; Lot. No. 1303129). Five microliters of aqueous humor were diluted to 100 μl with water. Twenty microliters of samples and of standards were load into a 96-well plate and recorded in a plate layout. Samples were treated following the assay procedure described in the kit. A microplate reader (GDV, Italy; model DV 990 B/V6) set at 670 nm was used for making the calibration and analyzing the samples.
Pupillary diameter, PGE2, protein, PMN, and MPO were expressed as mean±SEM. Statistical analysis was performed using one way ANOVA followed by a Newman-Keuls post hoc test. Clinical score was expressed as % of eyes and the statistical analysis was performed using Kruskal-Wallis followed by a Dunn post hoc test. P<0.05 was considered statistically significant in both cases. Prism 4 software (GraphPad Software, Inc.) was used for the analysis and graphs.

In the case of `Cc1ccc2c(NC[C@](O)(CC(C)(C)c3cc(F)cc4c3OCC4)C(F)(F)F)cccc2n1` [BOL-303242-X, mapracorat], the “Potency relative to dexamethasone, inhibition of IL-1β-stimulated IL-6, IL-7, TGF-α, TNF-α, VGEF, and MCP-1” value [1] is reported as “comparable potency”, the “Potency relative to dexamethasone, inhibition of IL-1β-stimulated production of G-CSF” value [1] is reported as “more potent than dexamethasone” and the “Potency relative to dexamethasone, inhibition of IL-1β-stimulated production of GM-CSF, IL-8, and RANTES” value [1] is reported as “somewhat less potent than dexamethasone”. The “Inhibition of IL-1β-stimulated production of IL-6, IL-7, MCP-1, TGF-α, TNF-α and VEGF” value ([1]; 10 ng/ml IL-1β, 18 h, comparable potency of both compounds) was “significantly inhibited”, the “Effect on IL-1β-stimulated G-CSF production” value ([1]; 18 h) was “significantly inhibited” and the “Inhibition of IL-1β-stimulated production of GM-CSF, IL-8, and RANTES” value ([1]; 18 h, less potency compared to dexamethasone) was “significantly inhibited”. For the same compound, the “Inhibition of COX-2 production by IL-1β-induced HConF” value [2] was “inhibition of COX-2 production; also recorded: successfully inhibits”, the “proportion of subjects with Grade 0 pain” value ([3]; 2% QID, Visit 5 (postoperative Day 8), vehicle 50.0%) was 78.3% and the “proportion of subjects with Grade 0 pain” value ([3]; 3% BID, Visit 7 (postoperative Day 18), vehicle 31.7%) was 63.3%. The “proportion of subjects with Grade 0 pain” value ([3]; 3% QID, Visit 7 (postoperative Day 18), vehicle 31.7%) was 58.3%, the “mean IOP values among dose groups” value ([4]; 2% QID and 3% QD groups, Visit 4 (postoperative Day 3) to Visit 7 (postoperative Day 18)) was “lowest mean TOP values” and the “proportion of subjects with mean IOP changes from baseline of ≧5 mmHg or ≧10 mmHg, compared to vehicle” value ([4]; any dose groups at any study visits) was “no statistically significant differences”. For the same compound, the “Protein level in aqueous humor, Mean” value ([5]; 0.1% formulation, second paracentesis) was 33.667 mg/mL, the “Protein in aqueous humor, statistical significance vs CTR” value ([5]; 0.5% formulation, p<0.05) was “statistical significance” and the “Protein level in aqueous humor, Mean” value ([5]; 0.5% formulation, second paracentesis) was 28.844 mg/mL. The “Protein level in aqueous humor, raw data” value ([5]; 0.5% formulation, second paracentesis, per eye, listed as BOL) was 33.98 mg/mL and 33.65 mg/mL and 19.99 mg/mL and 27.11 mg/mL and 19.72 mg/mL and 36.35 mg/mL and 27.71 mg/mL and 32.24 mg/mL, the “Protein in aqueous humor, statistical significance vs CTR” value ([5]; 1% formulation, p<0.001) was “statistical significance” and the “Protein level in aqueous humor, Mean” value ([5]; 1% formulation, second paracentesis) was 21.435 mg/mL.
